Patent US6884577B2, “Methods for screening compounds for estrogenic activity” (The Regents of the University of California, priority 1993, dated 2005)

What was measured:
[1] = tested on: ER at the AP1 site of the collagenase promoter, F9 cells; test: Δcoll73 CAT reporter in F9 cells with transiently transfected ER; assay type: cell-based, human; settings: no c-Jun/c-fos, FIG. 1B
Text: Cells were maintained and transfected as previously described in Webb et al., supra. […] […] The cells were glycerol shocked and refed in growth medium containing hormone or ethanolic vehicle.

ER at classical ERE = test: Reporter genes containing classical EREs (ERE-coll60, ERE-tk) in cells with ER; assay type: cell-based, human
Experimental: FIGS. 2A-2C show antiestrogen stimulation of expression in an intact AP-1 Site, but not at classical EREs. […] Representations, at left, show the human collagenase promoter (shaded) and the consensus AP-1 site. CAT activities were from cells maintained in the absence of hormone or saturating concentrations of ICI 164,384 (ICI, 1 μM), tamoxifen (5 μM) or estradiol ([…]). CAT activity is normalized to a transfection control with the actin promoter driving expression of βHCG. Single representative experiments are shown, error bars represent standard deviation of triplicate hormone treatments.
All reporter genes described below have been modified by digestion with EcoR I and Ndel to remove a AP-I site in the backbone of pUG. Thus, Coll73 and Coll60 are formerly_Coll73 and_Coll60 (Lopez et al. Mol. Cell. Biol. 13:3042-930 (1993)). Coll73-LUC was constructed by cloning a BamHI/Pvull fragment, that spanned the luciferase transcription unit, from pMG3 into coll73, which had been digested with BamHI and SmaI to remove the CAT transcription unit. EREcoll60 and EREcoll73 was prepared by ligation of a consensus ERE ([…], SEQ ID NO:3), into the HindIII site upstream of coll60 and coll73, respectively. All other reporter genes have been previously described (Webb et al. Mol. Endocrinol. 6:157-16725 (1992): and Lopez et al., supra).
Cells were maintained and transfected as previously described in Webb et al., supra. Hormones were added two hours after plating in the following concentrations, estradiol 100 nM, ICI 164,384 1 μM, tamoxifen 5 μM, to ensure saturation of the response. F9 cells were seeded at 30% confluence upon 1.5 cm dishes and transfected overnight by calcium phosphate coprecipitation with 5 μg reporter gene, 1 μg actin β-HCG, and 1 μg of HEO, 300 ng each of c-jun and c-fos expression vectors. The cells were glycerol shocked and refed in growth medium containing hormone or ethanolic vehicle. In transient transfections, optimal amounts of HEO were employed and were as follows: HeLa (5 μg); NIH3T3 (1 μg); HepG2 (1 μg); SHM (300 ng); SY5Y (300 ng); CEF (100 ng); CV-1 (3 μg); MDA453 (3 μg); CHO (100 ng) and F9 (1 μg).
CAT assays were carried out as described in Webb et al., except that the cells were harvested one to two days after transfection instead of three. CAT activities were defined as the increase in cpm per hour at room temperature (corrected for background) per 100 μl of cell extract, normalized to production of 100 standard units of βHCG, from a co-transfected reporter gene, actin-HCG. Luciferase assays were performed as described by Brasier et al. Methods Enzymol 216:386-97 (1992)) on similar extracts that were used for CAT assays. Light units were defined as the luciferase activity per 100 μl of cell extract per 100 standard units of βHCG. Relative luciferase activities were calculated with respect to the results that were obtained in the absence of ER and hormone, which was set at 1 unit. For the data presented in Table I triplicate points were determined. Standard deviations were less than 20%.
The activity of antiestrogens in the AP-1 pathway was also compared with their activity in the classical pathway. […] A promoter with both an ERE and an AP-1 site (ERE-coll73 FIG. 2C) gave a large estrogen response, but retained some response to antiestrogens. Another control reporter, in which the tk promoter was regulated by a classical ERE (ERE-tk FIG. 2C) was also activated by estrogen, but not by antiestrogens.

C[C@]12CC[C@@H]3c4ccc(O)cc4CC[C@H]3[C@@H]1CC[C@@H]2O [estradiol, 17β-estradiol]
estrogen response of Δcoll73 [1]: failed to respond
estrogen response of EREΔcoll60 (classical ERE substituted for AP1 site) (ER at classical ERE; ERC1 cells): restored estrogen response
activation of ERE-tk (ER at classical ERE; HeLa cells, FIG. 2C): activated
